Experimental data as given in patent publication US7537906B2, “Apoptosis inducer and method of screening for a substance inhibiting acylated homoserine lactone” (priority 2003, dated 2009).

Assays:
[1] = test system: Akt; assay: Akt activity (phospho-Akt) by Western blot in CaCo-2 cells; format: cell-based, human
Experimental: CaCo-2, the carcinoma cell line of human colon cancer, was purchased from American Type Culture Collection (ATCC), and cultured at 37° C. in the presence of 5% CO2 using a DMEM medium containing 10% FCS, 1% NEAA, and 1% P/S (100 units/ml penicillin and 100 μg/ml streptomycin).
6×10^5 CaCo-2 cells were inoculated per dish using 6 cm dishes (NUNC), washed twice with phosphate buffered saline (PBS) (-), and then cultured for 24 hours in a serum-free DMEM medium containing 1% NEAA. Subsequently, at a final concentration of 100 μM, homoserine lactone hydrochloride, N-butyryl-L-homoserine lactone, N-(3-oxohexanoyl)-L-homoserine lactone and N-(3-oxododecanoyl)-L-homoserine lactone were each added, and then each solution was allowed to react for 10 minutes. In addition, purified acylated homoserine lactone that was used herein had been dissolved in DMSO in a concentration 400 times higher than the target final concentration, and then subjected to filter sterilization (φ 0.22 μm). DMSO at a final concentration of 0.25% was used as a control. In addition, α-tubulin was used as an internal standard.
After reaction, the product was washed twice with cold PBS (-), and then frozen at −80° C. The cells were thawed on ice, 200 μl of a lysis buffer (50 mM HEPES, pH7.5, 50 mM NaCl, 1 mM EDTA, 1.5 mM MgCl2, 1% Triton X-100, 10% glycerine, 10 mM sodium pyrophosphate, 1 mM Na3VO4, 100 mM NaF, 1 mM PMSF, 10 μg/ml aprotinin and 10 μg/ml leupeptin) was added, and then the cells were scraped off using a scraper. The cells were allowed to stand on ice for 20 minutes, and then centrifuged at 14,000 rpm at 4° C. for 15 minutes, thereby collecting the supernatant. Concentration of the collected protein was measured, and protein equivalent to 50 μg was subjected to SDS-PAGE. After electrophoresis, the product was blotted on a PVDF membrane. When phospho-Akt was measured, blocking was carried out with 5% skim milk/Tris-buffered saline containing 0.1% Tween 20 (TBS-T), and the anti-phospho-Akt ([…]) antibody and the HRP-labeled anti-rabbit IgG antibody were used as a primary antibody and a secondary antibody, respectively. For α-tubulin used as an internal standard, blocking was carried out with 5% bovine serum albumin (BSA)/TBS-T, and the anti-α-tubulin (Ab-1) and the HRP-labeled anti-mouse IgG antibody were used as a primary antibody and a secondary antibody, respectively. For band detection, Renaissance™ Western Blot Chemiluminescence […] Reagent Plus (NEN) or Western Blotting Luminol Reagent (SANTA CRUZ BIOTECHNOLOGY) was used. […] In addition in the figure that is described below, HSL means homoserine lactone hydrochloride, C4-HSL means N-butyryl-L-homoserine lactone, 3-oxo-C6-HSL means N-(3-oxohexanoyl)-L-homoserine lactone, and 3-oxo-C12-HSL means N-(3-oxododecanoyl)-L-homoserine lactone.
After cell culture, N-(3-oxododecanoyl)-L-homoserine lactones with final concentrations of 0 μM (0.25% DMSO), 1 μM, 10 μM, 30 μM and 100 μM were each added. Akt activity was analyzed by Western blot in a manner similar to that used in (1), except for carrying out reaction for 10 minutes (FIG. 2).
After cell culture, N-(3-oxododecanoyl)-L-homoserine lactones with final concentrations of 30 μM and 100 μM were each added. For each case, Akt activity was measured by Western blot in a manner similar to that in (1), except for carrying out stimulation with acylated homoserine lactone in a short time course of 0, 5, 10, 30 and 60 minutes (FIG. 4), and in a long time course of 0, 10 minutes, 60 minutes, 2 hours, 4 hours, 6 hours, 8 hours and 10 hours (FIG. 5). In the case of stimulation at 30 μM, the inhibition of Akt activity peaked at 5 minutes, and lasted until 60 minutes after stimulation, and then returned to the base level within 2 hours. On the other hand, in the case of stimulation at […], the inhibition of Akt activity peaked at 5 minutes and lasted until 6 hours after stimulation. […]

[2] = test system: caspase-3; assay: Caspase activity by Western blot (cleaved caspase-3) in CaCo-2 cells; format: cell-based, human
Experimental: (§1) The activities of caspase (caspase-3 and caspase-9) and PARP (poly-ADP ribose polymerase) were measured in a manner similar to those in Examples 1 and 2 by Western blot analysis using each of anti-activated (cleaved) caspase antibodies, that is, an anti-cleaved caspase-3 antibody, an anti-cleaved caspase-9 antibody (D330) and an anti-cleaved PARP antibody (D214).
(§2) N-(3-oxododecanoyl)-L-homoserine lactones with final concentrations of 30 μM and 100 μM were each added to cultured CaCo-2 cells. Caspase-3, caspase-9 and PARP activities were analyzed over time by Western blot at 0 hours, 1 hour, 2 hours, 4 hours, 6 hours, 8 hours and 10 hours after culture. […] Whereas at 30 μM, activated caspase-3 began to be detected 1 hour after stimulation and the activity lasted until 4 hours after stimulation, at 100 μM the activity peaked at 6 hours and lasted until 10 hours after stimulation. Cleaved caspase-9 and cleaved PARP were detected by reprobing each membrane.
(§3) Next, 3 hours of reaction with N-(3-oxododecanoyl)-L-homoserine lactone was carried out at concentrations of 0, 1, 10, 30, and 100 μM, and then caspase and PARP activities were measured.

[3] = test system: caspase-9; assay: Caspase activity by Western blot (cleaved caspase-9) in CaCo-2 cells; format: cell-based, human
Experimental: as §1, §2, §3

[4] = test system: Akt; assay: Akt activity (phospho-Akt) by Western blot in CaCo-2 cells; format: cell-based, human; details: stimulation at 10 μM
[5] = test system: IL-12; details: mouse macrophage culture system; cited from earlier work
[6] = 3 hours of reaction, 0, 1, 10, 30 and 100 μM

For CCCCCCCCCC(=O)CC(=O)N[C@H]1CCOC1=O [N-(3-oxododecanoyl)-L-homoserine lactone], the “Akt activity, % of that where no stimulation was provided” value ([1]; 10 μM, 10 minutes) was 79%, the “Akt activity, % of that where no stimulation was provided” value ([1]; 30 μM, 10 minutes) was 31% and the “Akt activity, % of that where no stimulation was provided” value ([1]; 100 μM, 10 minutes) was 14%. The “level of phosphorylated Akt” value ([1]; 100 μM, 10 minutes) was “significantly decreased”, the “concentration at which levels of phosphorylated Akt significantly decreased” value ([1]; 10 minutes) was at least 10 µM and the “time at which inhibition of Akt activity peaked” value (from here on “time at which inhibition”) ([1]; stimulation at 10 μM) was 5 min. The “inhibition of Akt activity lasted until (after stimulation)” value (shortened to “inhibition of Akt activity lasted until”) ([1]; stimulation at 30 μM) was 60 min, the “time at which inhibition” value ([1]; stimulation at 30 μM) was 5 min and the “time for Akt activity to return to the base level” value ([1]; stimulation at 30 μM) was at most 2 h. The “inhibition of Akt activity lasted until” value ([1]; stimulation at 100 μM) was 360 min, the “time at which inhibition” value ([1]; stimulation at 100 μM) was 5 min and the “caspase-3 activity lasted until (after stimulation)” value ([2]; 30 μM) was 4 h. The “time at which activated caspase-3 began to be detected after stimulation” value ([2]; 30 μM) was 1 h, the “caspase-3 activity lasted until (after stimulation)” value ([2]; 100 μM) was 10 h and the “time of peak caspase-3 activity” value ([2]; 100 μM) was 6 h. For the same compound, the “concentration at which cleaved caspase (caspase-3) was detected” value [2, 6] was at least 30 µM, the “caspase-9 activity over time” value ([3]; 30 μM) was “strong at 1, 2 and 4 hours” and the “weak caspase-9 activity lasted until (after stimulation)” value ([3]; 30 μM) was 8 h. For the same compound, the “strong caspase-9 activity lasted until (after stimulation)” value ([3]; 100 μM) was 8 h, the “concentration at which cleaved caspase (caspase-9) was detected” value [3, 6] was at least 30 µM and the “inhibition of Akt activity lasted until” value [4] was 6 h. The IL-12 production [5] was “promotes”.
